Experiments:
Sum159 xenograft tumors = assay: ALDH+ cells in Sum159 xenografts in vivo; parameters: species or system nude mice; conditions: 100 μM DTPP in drinking water 2 weeks; BSO 675 mg/kg i.p.; Au 2.7 mg/kg i.p.
Description: FIGS. 1A-D: BSO, DTPP and AUR treated SUM159, MDA-MB231 and HMEC Clonogenic survival. In Panel A (SUM 159), B (MDA-MB231) and C(HMEC), 150,000 cells/dish SUM159 or MDA-MB231 and 300,000 cells/dish were plated in 60 mm tissue culture dishes. After 48 hours, cells were given fresh complete HMECs media and treated with 100 μM BSO+/1 μM DTPP for 24 hours. 500 nM AUR were added 15 mins before the trypsinization of cells for clonogenic survival assay. In panel A-C, The error bars represent mean±1 SD of n=1 treatment dishes done in 3 separate experiments where each treatment dish was used to prepare 6-10 replicate cloning dishes for analysis. *p<0.001 as compared to Control. […] Mice growing Sum159 xenograft tumors were treated with 100 μM DTPP in drinking water for 2 weeks followed by i.p. injections of BSO 675 mg/kg followed in 2 hrs with Au 2.7 mg/kg. The day following injections tumors were harvested, digested and stained for ALDH positive cells. Each bar represents an average of at least three tumors. Error bars are SEM. *p<0.05 vs. control.
To address this question, SUM159 were treated with these drugs as described in FIG. 1, and aldehyde dehydrogenase (ALDH) activity, a marker of cancer stem cells was examined by ALDEFLUOR assay. […]

SUM159 cells [1] = assay: DHE oxidation (intracellular superoxide); assay type: cell-based, human
Description: FIG. 10: DHE oxidation of BSO,DTPP and AUR exposed SUM159 cells. Asynchronously growing cultures of SUM159 were plated and treated as described in FIG. 1. Monolayer cultures were harvested and trypsinized, washed once with PBS and labeled 40 minutes with 5 μM DHE (in 0.1% DMSO) in PBS containing 5 mM pyruvate at 37° C. Each sample was then analyzed for the Mean fluorescence Intensity (MFI) of 10,000 cells by flow cytometry. Samples were assayed in triplicate; mean±1 SD of 2 experiment containing treatment dishes per group (n=6). *p<0.001 as compared to Control.
Estimation of intracellular superoxide levels using Dihydroethidium (DHE) oxidation: Steady-state levels of superoxide were estimated using the fluorescent dyes, dihydroethidium (DHE) purchased from Molecular Probes (Eugene, Oreg.). Cells were plated and treated for as described earlier. On day 6, the cells were trypsinized and washed with 5 mM/L pyruvate containing PBS once then labeled with DHE ([…], in 0.1% DMSO, 40 min) at 37° C. After labeling, cells were kept on ice. Samples were analyzed using a FACScan flowcytometer (Becton Dickinson Immunocytometry System, INC., Mountain View, Calif.) (excitation 488 nm, emission 585 nm band-pass filter). The mean fluorescence intensity (MFI) of 10,000 cells was analyzed in each sample and corrected for autofluorescence from unlabeled cells. The MFI data was normalized to control levels.

A375 melanoma cells = assay: MTT survival fraction analysis, A375; assay type: cell-based
HMECs = assay: CDCFH2 / CDCF probe labeling (intracellular hydroperoxides), HMEC; assay type: cell-based, human; conditions: oxidation-insensitive probe
Description: (§1) FIGS. 5A-5D: CDCFH2 oxidation sensitive and CDCF oxidation insensitive probe labeling of BSO, DTPP, and AUR exposed SUM159 and HMECs cells. Asynchronously growing cultures of SUM159 (Panels A, B) and HMECs (Panes C, D) were plated and treated as described in FIG. 1. Monolayer cultures were harvested and trypsinized, washed once with PBS then labeled in PBS with either CDCFH2 (Panesl A, C) or CDCF (Panels B, D)(10 μg/mL, in 0.1% DMSO 15 minutes) at 37° C. Mean fluorescence intensity (MFI) of 10,000 cells was analyzed by flow cytometry. Samples were assayed in triplicate; Mean±1 SEM of 3 separate experiments containing 3 treatment dishes per group (n=9), *p<0.001 as compared to Control.
(§2) Measurement of Intracellular Hydroperoxides: Steady-state levels of hydroperoxides were estimated using the oxidation sensitive {5-(and-6)-carboxy-2′,7′-dichlorodihydrofluorescein diacetate, (CDCFH2)} and oxidation-insensitive {5-(and-6)-carboxy-2′,7′-dichlorofluorescein diacetate, (CDCF)} fluorescent dyes purchased from Molecular Probes. Cells were plated and treated with BSO, DTPP and AUR as described above. […] Samples were analyzed using a FACScan flowcytometer (Becton Dickinson Immuno-cytometry System, INC., Mountain View, Calif.) (excitation 488 nm, emission 530 nm band-pass filter). The MFI of 10,000 cells was analyzed in each sample and corrected for autofluorescence from unlabeled cells. […]

SUM159 cells [2] = assay: CDCFH2 / CDCF probe labeling (intracellular hydroperoxides), SUM159; assay type: cell-based, human; conditions: oxidation-sensitive probe
Description: as §1
FIG. 9: Catalase inhibitable CDCFH2 oxidation in BSO, DTPP, and AUR exposed SUM159 cells. […] Mean fluorescence intensity (MFI) of 10,000 cells was analyzed by flow cytometry. […]
as §2, with “Probes.” for “Probes. Cells were plated and treated with BSO, DTPP and AUR as described above.”, “filter).” for “filter). The MFI of 10,000 cells was analyzed in each sample and corrected for autofluorescence from unlabeled cells.”

SMILES | effect on ALDH positive cells in xenografts, in words (Sum159 xenograft tumors) | increase of DHE oxidation (SUM159 cells [1]) [fold] | cytotoxicity in the absence of BSO, in words (A375 melanoma cells) | CDCF labeling signal relative to control (HMECs) [fold] | increase in CDCFH2 oxidation compared to control (SUM159 cells [2]) [fold]
CC[PH](CC)(CC)[Au][S][C@@H]1O[C@H](COC(C)=O)[C@@H](OC(C)=O)[C@H](OC(C)=O)[C@H]1OC(C)=O [AUR, S-triethylphosphinegold(I)-2,3,4,6-tetra-O-acetyl-1-thio-β-D-glucopyranoside] | decrease of ALDH+cells | – | – | – | –
CCCCS(=N)(=O)CCC(N)C(=O)O [BSO, L-buthionine-[S,R]-sulfoximine, reference compound] | decrease of ALDH+cells | – | – | – | –
CCCCCCCCCC[P+](c1ccccc1)(c1ccccc1)c1ccccc1 [DTPP, Decyl-Triphenylphosphonium] | – | 1.5 | intermediate cytotoxicity | 2 | 2

Source: US9801922B2, “Compositions and methods of treating cancer” (UNIVERSITY OF IOWA RESEARCH FOUNDATION, priority 2011, dated 2017)
